# Results as given in paper PMC8115037, “Paracoccus denitrificans: a genetically tractable model system for studying respiratory complex I” (Scientific Reports, 2021).
# Where two headings read alike, the source gives them in different places.
# Legend:
# [1] = molecular target: T1, complex I (NADH:ubiquinone oxidoreductase), Pd-CI (Paracoccus denitrificans, UniProt A1B487+A1B495+A1B497); assay: NADH:DQ oxidoreductase assay, detergent-solubilized purified enzyme ([…] in proteoliposomes); type: biochemical
# T1 construct: gene nuoD; intact purified complex I, His6-tag on C-terminus of Nqo5 (Pd-Nqo5^His6); with multisubunit complex (14 core Nqo subunits plus PdNUMM, PdNUYM, PdN7BM)
# T1 sequence (A1B496 entry or part of it): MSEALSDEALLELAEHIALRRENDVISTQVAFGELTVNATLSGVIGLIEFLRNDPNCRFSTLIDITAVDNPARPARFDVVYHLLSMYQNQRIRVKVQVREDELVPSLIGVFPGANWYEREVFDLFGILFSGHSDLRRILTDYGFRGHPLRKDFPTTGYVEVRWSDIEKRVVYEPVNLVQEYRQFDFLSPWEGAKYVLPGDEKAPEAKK
# T1 sequence (A1B495 whole entry): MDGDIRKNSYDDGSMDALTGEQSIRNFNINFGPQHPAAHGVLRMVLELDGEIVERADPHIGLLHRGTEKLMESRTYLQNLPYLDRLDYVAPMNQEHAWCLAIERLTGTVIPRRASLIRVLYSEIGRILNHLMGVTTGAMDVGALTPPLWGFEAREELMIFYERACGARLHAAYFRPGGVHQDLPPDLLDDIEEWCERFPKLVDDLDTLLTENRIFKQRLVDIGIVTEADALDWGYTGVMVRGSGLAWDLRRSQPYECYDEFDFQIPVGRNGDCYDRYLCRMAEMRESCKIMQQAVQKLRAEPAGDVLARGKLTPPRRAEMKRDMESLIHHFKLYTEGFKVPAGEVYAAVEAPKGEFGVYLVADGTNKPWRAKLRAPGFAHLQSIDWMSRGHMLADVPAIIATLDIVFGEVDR
# T1 sequence (A1B487 whole entry): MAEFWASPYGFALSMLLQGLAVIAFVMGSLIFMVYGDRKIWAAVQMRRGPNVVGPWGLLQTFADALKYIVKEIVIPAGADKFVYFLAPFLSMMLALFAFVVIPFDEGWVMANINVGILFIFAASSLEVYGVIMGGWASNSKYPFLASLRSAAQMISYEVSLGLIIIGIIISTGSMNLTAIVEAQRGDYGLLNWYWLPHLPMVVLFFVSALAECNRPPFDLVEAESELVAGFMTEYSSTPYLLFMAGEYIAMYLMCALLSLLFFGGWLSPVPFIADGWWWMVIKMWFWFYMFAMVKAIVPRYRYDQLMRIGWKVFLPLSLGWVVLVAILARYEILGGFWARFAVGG
# T1 sequence (A1B498 entry or part of it, further chain): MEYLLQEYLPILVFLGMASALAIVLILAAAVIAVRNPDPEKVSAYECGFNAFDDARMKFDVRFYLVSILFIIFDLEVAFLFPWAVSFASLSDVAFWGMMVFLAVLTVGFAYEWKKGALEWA
# T1 sequence (A1B497 whole entry): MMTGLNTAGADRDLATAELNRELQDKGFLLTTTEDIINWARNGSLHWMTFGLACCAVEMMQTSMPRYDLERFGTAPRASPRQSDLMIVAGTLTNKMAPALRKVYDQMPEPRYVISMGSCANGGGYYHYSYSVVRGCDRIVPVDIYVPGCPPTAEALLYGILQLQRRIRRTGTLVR
# [2] = molecular target: T1, complex I (NADH:ubiquinone oxidoreductase), Pd-CI; assay: as above; type: biochemical; remark: listed apart in the source
Structure (SMILES),IC50 [1],IC50 [2]
C=C(C)[C@H]1Cc2c(ccc3c2O[C@@H]2COc4cc(OC)c(OC)cc4[C@@H]2C3=O)O1 [rotenone],2230 ± 185 nM,–
C/C=C(\C)[C@H](O)[C@H](C)/C=C(C)/C=C/C/C(C)=C/Cc1nc(OC)c(OC)c(O)c1C [piericidin A],–,72 ± 7 nM
